# Values quoted from earlier work in patent publication US20220008494A1, “COMPOSITION FOR USE IN THE PREVENTION AND/OR SYMPTOMATIC TREATMENT OF IRRITABLE BOWEL SYNDROME” (priority 2018, published 2022).
# Tests used:
# IBS patients = settings: 300 mg per day as adjunct to standard therapies
# [1] = tested on: carrageenan-induced edema; settings: 10 mg/kg p.o.; from 1 to 24 h (p<0.01) compared to the control
# [2] = tested on: tail withdrawal reaction time; settings: rat, in vivo
# [3] = 1 g/day butyric acid and inulin for 1 month, IBS-D compared to IBS-C patients
smiles,measurement,setting,value
CCCC(=O)O [butyric acid],frequency of abdominal pain associated with defecation,IBS patients; fourth week of treatment,significant decrease
same,defecation-associated pain,IBS patients; twelfth week,also decrease
same,post-defecation stimulus,IBS patients; twelfth week,also decrease
same,post-prandial abdominal pain,IBS patients; twelfth week,also decrease
same,spontaneous abdominal pain,IBS patients; twelfth week,also decrease
same,condition of IBS-D patients,IBS-D patients; 1 g/day butyric acid (4 x 250 mg capsules) and inulin for 1 month,normalization
same,frequency of diarrhea episodes,IBS-D patients; [3],significant reduction
same,stool consistency,IBS-D patients; [3],significant increase
"O=C(O)Cc1ccccc1Nc1c(Cl)cccc1Cl [Diclofenac, Diclofenac sodium]","edema (paw volume, plethysmometrically)",[1],significant decrease
CC(C)=CCN1CCC2(C)c3cc(O)ccc3CC1C2C (stereo not shown) [Pentazocine],reaction time (tail withdrawal),[2],significant increase
